# Assay results published in patent US10231954B2, “Neurodegenerative therapies” (LYTIX BIOPHARMA AS, priority 2014, dated 2019).
# Key:
# Assay type in all cases: biochemical
# MKK2 = MKK2 (Homo sapiens, UniProt P36507); experiment: Kinase profiling MKK2; conditions: 100 micromolar inhibitor concentration, 100 is no change
# From the text: (§1) Any value less that 25 is considered to be highly significant inhibition.
# MKK6 = target: T1, MKK6 (Homo sapiens, UniProt P52564); experiment: Kinase profiling MKK6; conditions: 100 micromolar inhibitor concentration, 100 is no change
# T1 sequence (P52564 1-334): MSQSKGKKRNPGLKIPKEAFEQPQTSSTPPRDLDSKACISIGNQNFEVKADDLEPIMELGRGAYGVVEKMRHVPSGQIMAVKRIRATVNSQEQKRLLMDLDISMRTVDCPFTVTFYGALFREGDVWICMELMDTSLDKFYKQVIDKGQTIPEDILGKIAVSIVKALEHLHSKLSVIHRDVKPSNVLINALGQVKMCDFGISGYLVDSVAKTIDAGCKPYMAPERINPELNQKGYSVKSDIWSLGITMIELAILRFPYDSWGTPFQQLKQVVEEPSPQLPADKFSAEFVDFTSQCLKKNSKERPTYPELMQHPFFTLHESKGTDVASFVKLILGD
# From the text: as §1
# ERK1 = ERK1 (Homo sapiens, UniProt P27361); experiment: Kinase profiling ERK1; conditions: 100 micromolar inhibitor concentration, 100 is no change
# From the text: as §1
# JNK2 = JNK2 (Homo sapiens, UniProt P45984); experiment: Kinase profiling JNK2; conditions: 100 micromolar inhibitor concentration, 100 is no change
# From the text: as §1
# JNK3 = JNK3 (Homo sapiens, UniProt P53779); experiment: Kinase profiling JNK3; conditions: 100 micromolar inhibitor concentration, 100 is no change
# From the text: as §1
# p38d MAPK = target: T2, p38d MAPK (Homo sapiens, UniProt O15264); experiment: Kinase profiling p38d MAPK; conditions: 100 micromolar inhibitor concentration, 100 is no change
# T2 sequence (O15264 1-365): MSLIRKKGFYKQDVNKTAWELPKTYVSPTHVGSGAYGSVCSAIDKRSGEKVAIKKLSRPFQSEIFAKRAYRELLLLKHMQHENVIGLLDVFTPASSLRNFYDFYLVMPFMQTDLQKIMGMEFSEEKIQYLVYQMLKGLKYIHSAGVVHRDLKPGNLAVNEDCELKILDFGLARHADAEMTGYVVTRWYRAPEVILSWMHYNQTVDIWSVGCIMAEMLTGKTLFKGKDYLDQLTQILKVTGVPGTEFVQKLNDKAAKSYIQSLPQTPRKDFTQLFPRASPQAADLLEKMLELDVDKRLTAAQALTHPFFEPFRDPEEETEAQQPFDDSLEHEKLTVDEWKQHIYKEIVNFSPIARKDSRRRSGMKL
# From the text: as §1
# PKBb = PKBb (Homo sapiens, UniProt P31751); experiment: Kinase profiling PKBb; conditions: for residual kinase activity, PKBb: 100 micromolar inhibitor concentration, 100 is no change
# From the text: as §1
# SGK1 = target: T3, SGK1 (Homo sapiens, UniProt O00141); experiment: Kinase profiling SGK1; conditions: 100 micromolar inhibitor concentration, 100 is no change
# T3 sequence (O00141 1-431): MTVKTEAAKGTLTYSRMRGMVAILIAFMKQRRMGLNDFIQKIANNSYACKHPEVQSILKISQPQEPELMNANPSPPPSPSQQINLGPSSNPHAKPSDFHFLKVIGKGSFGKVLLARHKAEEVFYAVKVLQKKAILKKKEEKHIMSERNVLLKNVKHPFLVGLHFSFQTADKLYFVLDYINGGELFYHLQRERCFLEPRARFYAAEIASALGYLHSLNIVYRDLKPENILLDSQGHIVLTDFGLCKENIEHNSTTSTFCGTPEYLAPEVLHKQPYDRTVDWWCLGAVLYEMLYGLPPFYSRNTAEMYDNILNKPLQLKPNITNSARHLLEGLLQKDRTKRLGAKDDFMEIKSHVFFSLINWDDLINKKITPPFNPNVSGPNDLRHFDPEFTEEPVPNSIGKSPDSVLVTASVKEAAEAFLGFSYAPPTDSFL
# From the text: as §1
# S6K1 = S6K1 (Homo sapiens, UniProt P23443); experiment: Kinase profiling S6K1; conditions: 100 micromolar inhibitor concentration, 100 is no change
# From the text: as §1
# PRK2 = PRK2 (Homo sapiens, UniProt Q16513); experiment: Kinase profiling PRK2; conditions: 100 micromolar inhibitor concentration, 100 is no change
# From the text: as §1
# PKCz = target: T4, PKCz (Homo sapiens, UniProt Q05513); experiment: Kinase profiling PKCz; conditions: 100 micromolar inhibitor concentration, 100 is no change
# T4 sequence (Q05513 1-592): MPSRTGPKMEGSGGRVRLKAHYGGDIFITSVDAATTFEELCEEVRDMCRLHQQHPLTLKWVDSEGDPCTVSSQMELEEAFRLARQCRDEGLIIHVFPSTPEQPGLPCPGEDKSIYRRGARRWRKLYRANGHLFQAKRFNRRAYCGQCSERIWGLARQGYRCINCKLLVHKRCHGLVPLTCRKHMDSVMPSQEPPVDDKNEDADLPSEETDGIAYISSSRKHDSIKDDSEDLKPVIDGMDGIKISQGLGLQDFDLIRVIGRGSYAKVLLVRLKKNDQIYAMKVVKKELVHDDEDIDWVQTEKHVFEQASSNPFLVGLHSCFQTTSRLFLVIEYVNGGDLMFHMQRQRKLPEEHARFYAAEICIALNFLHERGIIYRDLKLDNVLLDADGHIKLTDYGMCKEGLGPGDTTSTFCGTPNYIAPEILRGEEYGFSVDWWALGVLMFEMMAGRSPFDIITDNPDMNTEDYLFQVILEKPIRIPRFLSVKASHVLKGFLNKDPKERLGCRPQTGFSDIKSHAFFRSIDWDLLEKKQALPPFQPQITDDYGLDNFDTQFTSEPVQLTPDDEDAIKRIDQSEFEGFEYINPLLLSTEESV
# From the text: as §1
# SmMLCK = SmMLCK (Homo sapiens, UniProt Q15746); experiment: Kinase profiling SmMLCK; conditions: 100 micromolar inhibitor concentration, 100 is no change
# MARK3 = MARK3 (Homo sapiens, UniProt P27448); experiment: Kinase profiling MARK3; conditions: 100 micromolar inhibitor concentration, 100 is no change
# From the text: as §1
# HIPK2 = HIPK2 (Homo sapiens, UniProt Q9H2X6); experiment: Kinase profiling HIPK2; conditions: 100 micromolar inhibitor concentration, 100 is no change
# From the text: as §1
# MLK3 = MLK3 (Homo sapiens, UniProt Q16584); experiment: Kinase profiling MLK3; conditions: 100 micromolar inhibitor concentration, 100 is no change
# From the text: as §1
# Lck = Lck (Homo sapiens, UniProt P06239); experiment: Kinase profiling Lck; conditions: 100 micromolar inhibitor concentration, 100 is no change
# From the text: as §1
# BTK = BTK (Homo sapiens, UniProt Q06187); experiment: Kinase profiling BTK; conditions: 100 micromolar inhibitor concentration, 100 is no change
# From the text: as §1
# IGF-1R = IGF-1R (Homo sapiens, UniProt P08069); experiment: Kinase profiling IGF-1R; conditions: 100 micromolar inhibitor concentration, 100 is no change
# From the text: as §1
# VEG-FR = experiment: Kinase profiling VEG-FR; conditions: 100 micromolar inhibitor concentration; 100 is no change
# From the text: as §1
# Sequence of PKBb (P31751 whole entry): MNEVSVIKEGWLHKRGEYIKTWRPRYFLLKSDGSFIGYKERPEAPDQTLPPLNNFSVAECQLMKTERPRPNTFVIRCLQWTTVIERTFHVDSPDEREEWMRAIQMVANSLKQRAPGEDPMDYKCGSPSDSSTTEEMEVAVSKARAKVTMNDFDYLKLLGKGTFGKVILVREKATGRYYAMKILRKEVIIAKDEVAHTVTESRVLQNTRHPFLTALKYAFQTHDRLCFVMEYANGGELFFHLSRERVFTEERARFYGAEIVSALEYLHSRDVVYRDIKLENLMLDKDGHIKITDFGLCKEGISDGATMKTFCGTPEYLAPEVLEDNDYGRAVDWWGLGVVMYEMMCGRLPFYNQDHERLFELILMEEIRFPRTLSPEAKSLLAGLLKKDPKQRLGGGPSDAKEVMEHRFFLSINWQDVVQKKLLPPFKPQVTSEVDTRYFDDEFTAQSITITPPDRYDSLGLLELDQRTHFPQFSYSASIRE
# Sequence of SmMLCK (Q15746 923-1914): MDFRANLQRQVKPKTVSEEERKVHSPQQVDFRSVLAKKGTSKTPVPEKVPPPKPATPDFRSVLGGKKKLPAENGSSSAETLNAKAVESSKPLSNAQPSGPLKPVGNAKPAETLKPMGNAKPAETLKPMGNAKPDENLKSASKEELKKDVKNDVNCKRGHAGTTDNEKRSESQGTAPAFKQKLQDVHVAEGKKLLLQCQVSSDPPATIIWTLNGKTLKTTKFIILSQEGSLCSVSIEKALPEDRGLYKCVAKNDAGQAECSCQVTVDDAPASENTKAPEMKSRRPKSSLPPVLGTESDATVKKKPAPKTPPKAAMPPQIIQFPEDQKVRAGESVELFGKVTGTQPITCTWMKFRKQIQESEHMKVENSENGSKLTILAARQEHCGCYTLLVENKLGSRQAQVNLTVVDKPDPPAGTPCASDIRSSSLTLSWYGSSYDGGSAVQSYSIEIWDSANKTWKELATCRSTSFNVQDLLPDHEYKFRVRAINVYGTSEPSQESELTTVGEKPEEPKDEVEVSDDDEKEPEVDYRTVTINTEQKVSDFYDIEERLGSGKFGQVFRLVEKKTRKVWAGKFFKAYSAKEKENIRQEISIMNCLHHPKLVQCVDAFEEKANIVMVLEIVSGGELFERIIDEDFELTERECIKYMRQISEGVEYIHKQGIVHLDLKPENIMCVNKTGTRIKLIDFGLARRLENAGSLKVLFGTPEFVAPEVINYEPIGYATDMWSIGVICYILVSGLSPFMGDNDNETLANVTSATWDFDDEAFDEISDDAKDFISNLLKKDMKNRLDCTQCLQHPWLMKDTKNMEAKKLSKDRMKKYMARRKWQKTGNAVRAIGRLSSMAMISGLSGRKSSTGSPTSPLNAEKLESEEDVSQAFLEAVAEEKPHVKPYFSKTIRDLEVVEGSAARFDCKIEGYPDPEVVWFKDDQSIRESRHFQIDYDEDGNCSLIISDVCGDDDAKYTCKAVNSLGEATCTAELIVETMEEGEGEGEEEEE
# Sequence of PRK2 (Q16513 whole entry, species assumed): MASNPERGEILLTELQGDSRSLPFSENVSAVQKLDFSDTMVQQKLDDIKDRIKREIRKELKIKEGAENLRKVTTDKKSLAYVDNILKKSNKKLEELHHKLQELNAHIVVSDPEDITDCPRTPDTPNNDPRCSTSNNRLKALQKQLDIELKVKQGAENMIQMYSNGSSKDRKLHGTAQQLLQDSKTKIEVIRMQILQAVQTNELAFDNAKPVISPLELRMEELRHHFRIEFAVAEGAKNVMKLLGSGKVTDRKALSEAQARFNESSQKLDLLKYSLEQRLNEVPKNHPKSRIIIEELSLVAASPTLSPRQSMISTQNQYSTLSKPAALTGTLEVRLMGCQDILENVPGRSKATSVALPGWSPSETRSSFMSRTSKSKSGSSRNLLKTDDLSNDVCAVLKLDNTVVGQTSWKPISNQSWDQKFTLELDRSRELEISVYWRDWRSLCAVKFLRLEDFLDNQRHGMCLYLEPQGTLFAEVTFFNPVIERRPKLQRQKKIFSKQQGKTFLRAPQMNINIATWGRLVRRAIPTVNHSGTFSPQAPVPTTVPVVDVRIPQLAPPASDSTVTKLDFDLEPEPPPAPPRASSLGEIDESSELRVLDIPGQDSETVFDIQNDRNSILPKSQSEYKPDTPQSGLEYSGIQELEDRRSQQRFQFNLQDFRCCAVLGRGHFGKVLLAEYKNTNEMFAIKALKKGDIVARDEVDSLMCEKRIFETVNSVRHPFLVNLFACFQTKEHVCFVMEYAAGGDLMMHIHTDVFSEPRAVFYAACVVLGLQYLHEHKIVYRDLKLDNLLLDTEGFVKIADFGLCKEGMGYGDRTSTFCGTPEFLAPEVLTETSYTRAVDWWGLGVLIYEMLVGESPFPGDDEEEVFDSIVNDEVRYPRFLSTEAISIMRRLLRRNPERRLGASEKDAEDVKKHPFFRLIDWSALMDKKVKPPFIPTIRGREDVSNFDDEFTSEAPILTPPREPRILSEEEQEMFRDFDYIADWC
# Sequence of JNK3 (P53779 whole entry, species assumed): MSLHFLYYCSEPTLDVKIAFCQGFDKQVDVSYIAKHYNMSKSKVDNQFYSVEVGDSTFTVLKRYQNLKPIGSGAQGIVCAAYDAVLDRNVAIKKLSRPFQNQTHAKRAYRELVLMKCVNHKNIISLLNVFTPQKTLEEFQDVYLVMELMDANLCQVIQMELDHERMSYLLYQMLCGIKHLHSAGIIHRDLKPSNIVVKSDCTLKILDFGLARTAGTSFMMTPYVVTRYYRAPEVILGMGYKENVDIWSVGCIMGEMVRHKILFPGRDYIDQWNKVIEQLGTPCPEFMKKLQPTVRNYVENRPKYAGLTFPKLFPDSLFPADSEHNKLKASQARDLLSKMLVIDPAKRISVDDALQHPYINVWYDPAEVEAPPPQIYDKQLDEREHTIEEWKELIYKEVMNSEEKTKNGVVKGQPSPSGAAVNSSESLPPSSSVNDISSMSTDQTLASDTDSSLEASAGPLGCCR
# Sequence of JNK2 (P45984 whole entry, species assumed): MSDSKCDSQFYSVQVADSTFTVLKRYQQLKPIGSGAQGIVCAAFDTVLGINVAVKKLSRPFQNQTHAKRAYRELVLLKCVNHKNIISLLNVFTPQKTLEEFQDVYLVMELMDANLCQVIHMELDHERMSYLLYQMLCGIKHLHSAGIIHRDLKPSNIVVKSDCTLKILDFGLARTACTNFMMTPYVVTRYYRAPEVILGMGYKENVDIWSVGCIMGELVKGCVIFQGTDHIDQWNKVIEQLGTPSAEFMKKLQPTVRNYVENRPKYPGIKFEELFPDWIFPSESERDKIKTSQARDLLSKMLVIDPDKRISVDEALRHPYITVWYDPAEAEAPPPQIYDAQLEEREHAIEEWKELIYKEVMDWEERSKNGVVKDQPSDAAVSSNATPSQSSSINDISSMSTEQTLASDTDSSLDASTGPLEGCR
# Sequence of MARK3 (P27448 whole entry, species assumed): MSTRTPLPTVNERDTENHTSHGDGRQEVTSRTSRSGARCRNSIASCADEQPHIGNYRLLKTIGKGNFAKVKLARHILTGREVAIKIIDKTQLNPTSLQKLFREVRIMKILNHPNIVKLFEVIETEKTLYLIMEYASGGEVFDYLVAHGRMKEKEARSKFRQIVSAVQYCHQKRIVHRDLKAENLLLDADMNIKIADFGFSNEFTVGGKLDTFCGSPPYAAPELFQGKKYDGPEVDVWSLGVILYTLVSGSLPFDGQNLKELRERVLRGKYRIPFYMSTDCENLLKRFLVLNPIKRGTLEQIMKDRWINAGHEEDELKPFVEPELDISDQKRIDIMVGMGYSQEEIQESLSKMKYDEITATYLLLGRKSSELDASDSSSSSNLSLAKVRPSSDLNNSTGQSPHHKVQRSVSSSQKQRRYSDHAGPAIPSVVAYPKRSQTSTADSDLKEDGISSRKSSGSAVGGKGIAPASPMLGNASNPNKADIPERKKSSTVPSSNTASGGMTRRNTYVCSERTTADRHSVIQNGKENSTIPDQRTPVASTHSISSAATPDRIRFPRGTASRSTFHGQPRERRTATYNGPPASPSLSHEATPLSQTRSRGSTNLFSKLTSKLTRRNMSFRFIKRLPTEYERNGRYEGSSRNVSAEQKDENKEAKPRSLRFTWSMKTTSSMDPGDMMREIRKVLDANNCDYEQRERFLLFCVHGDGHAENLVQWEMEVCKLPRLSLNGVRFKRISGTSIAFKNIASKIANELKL
# Sequence of S6K1 (P23443 whole entry, species assumed): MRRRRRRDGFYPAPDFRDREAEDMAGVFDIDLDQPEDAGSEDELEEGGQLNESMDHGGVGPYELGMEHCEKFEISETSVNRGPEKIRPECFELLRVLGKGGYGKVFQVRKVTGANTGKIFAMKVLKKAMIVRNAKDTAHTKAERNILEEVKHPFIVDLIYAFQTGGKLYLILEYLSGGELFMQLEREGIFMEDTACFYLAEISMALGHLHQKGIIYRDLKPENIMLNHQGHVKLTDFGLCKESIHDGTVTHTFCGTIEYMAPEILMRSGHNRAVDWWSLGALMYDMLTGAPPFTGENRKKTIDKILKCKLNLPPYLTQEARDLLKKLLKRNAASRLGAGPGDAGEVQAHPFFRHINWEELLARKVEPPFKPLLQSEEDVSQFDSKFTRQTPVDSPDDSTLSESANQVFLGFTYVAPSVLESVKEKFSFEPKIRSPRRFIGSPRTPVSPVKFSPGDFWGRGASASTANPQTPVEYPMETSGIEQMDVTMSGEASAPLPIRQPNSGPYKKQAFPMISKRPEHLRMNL
# Sequence of ERK1 (P27361 whole entry, species assumed): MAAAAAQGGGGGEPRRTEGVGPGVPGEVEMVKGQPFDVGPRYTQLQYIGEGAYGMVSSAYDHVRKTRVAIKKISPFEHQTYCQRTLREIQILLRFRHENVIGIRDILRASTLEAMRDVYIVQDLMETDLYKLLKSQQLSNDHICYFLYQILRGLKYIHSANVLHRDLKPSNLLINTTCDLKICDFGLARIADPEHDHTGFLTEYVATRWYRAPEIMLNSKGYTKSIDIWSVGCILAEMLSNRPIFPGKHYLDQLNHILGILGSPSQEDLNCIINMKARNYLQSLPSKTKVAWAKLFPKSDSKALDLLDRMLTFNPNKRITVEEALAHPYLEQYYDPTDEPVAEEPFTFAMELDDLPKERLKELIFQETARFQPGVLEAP
smiles,measurement,setting,value
CC(=O)Nc1nc2cc(C)ccc2s1 [Compound 03-76],"residual kinase activity, MKK2",MKK2,155
same,"residual kinase activity, MKK6",MKK6,113
same,"residual kinase activity, ERK1",ERK1,91
same,"residual kinase activity, JNK2",JNK2,105
same,"residual kinase activity, JNK3",JNK3,76
same,"residual kinase activity, p38d MAPK",p38d MAPK,85
same,"residual kinase activity, PKBb",PKBb,91
same,"residual kinase activity, SGK1",SGK1,65
same,"residual kinase activity, S6K1",S6K1,77
same,"residual kinase activity, PRK2",PRK2,84
same,"residual kinase activity, PKCz",PKCz,101
same,"residual kinase activity, SmMLCK",SmMLCK,62
same,"residual kinase activity, MARK3",MARK3,71
same,"residual kinase activity, HIPK2",HIPK2,51
same,"residual kinase activity, MLK3",MLK3,35
same,"residual kinase activity, Lck",Lck,120
same,"residual kinase activity, BTK",BTK,92
same,"residual kinase activity, IGF-1R",IGF-1R,75
same,"residual kinase activity, VEG-FR",VEG-FR,50
CC(=O)Nc1nc2cc(F)ccc2s1 [Compound 03-77],remaining activity at 100 µM,"MKK2; read-out: residual kinase activity, MKK2",101%
same,remaining activity at 100 µM,"MKK6; read-out: residual kinase activity, MKK6",118%
same,remaining activity at 100 µM,"ERK1; read-out: residual kinase activity, ERK1",90%
same,remaining activity at 100 µM,"JNK2; read-out: residual kinase activity, JNK2",99%
same,remaining activity at 100 µM,"JNK3; read-out: residual kinase activity, JNK3",68%
same,remaining activity at 100 µM,"p38d MAPK; read-out: residual kinase activity, p38d MAPK",76%
same,remaining activity at 100 µM,"PKBb; read-out: residual kinase activity, PKBb",93%
same,remaining activity at 100 µM,"SGK1; read-out: residual kinase activity, SGK1",66%
same,remaining activity at 100 µM,"S6K1; read-out: residual kinase activity, S6K1",48%
same,remaining activity at 100 µM,"PRK2; read-out: residual kinase activity, PRK2",74%
same,remaining activity at 100 µM,"PKCz; read-out: residual kinase activity, PKCz",110%
same,remaining activity at 100 µM,"SmMLCK; read-out: residual kinase activity, SmMLCK",66%
same,remaining activity at 100 µM,"MARK3; read-out: residual kinase activity, MARK3",58%
same,remaining activity at 100 µM,"HIPK2; read-out: residual kinase activity, HIPK2",22%
same,remaining activity at 100 µM,"MLK3; read-out: residual kinase activity, MLK3",44%
same,remaining activity at 100 µM,"Lck; read-out: residual kinase activity, Lck",96%
same,remaining activity at 100 µM,"BTK; read-out: residual kinase activity, BTK",105%
same,remaining activity at 100 µM,"IGF-1R; read-out: residual kinase activity, IGF-1R",58%
same,"residual kinase activity, VEG-FR",VEG-FR,48
O=C(Nc1nc2ccc(O)cc2s1)c1ccncc1 [Compound 08-42],"residual kinase activity, MKK2",MKK2,72
same,"residual kinase activity, MKK6",MKK6,101
same,"residual kinase activity, ERK1",ERK1,84
same,"residual kinase activity, JNK2",JNK2,90
same,"residual kinase activity, JNK3",JNK3,65
same,"residual kinase activity, p38d MAPK",p38d MAPK,65
same,"residual kinase activity, PKBb",PKBb,52
same,"residual kinase activity, SGK1",SGK1,60
same,"residual kinase activity, S6K1",S6K1,38
same,"residual kinase activity, PRK2",PRK2,44
same,"residual kinase activity, PKCz",PKCz,76
same,"residual kinase activity, SmMLCK",SmMLCK,33
same,"residual kinase activity, MARK3",MARK3,68
same,"residual kinase activity, HIPK2",HIPK2,23
same,"residual kinase activity, MLK3",MLK3,30
same,"residual kinase activity, Lck",Lck,79
same,"residual kinase activity, BTK",BTK,59
same,"residual kinase activity, IGF-1R",IGF-1R,88
same,"residual kinase activity, VEG-FR",VEG-FR,20
O=C(Nc1nc2ccc(O)cc2s1)c1cccnc1 [Compound 08-44],"residual kinase activity, MKK2",MKK2,48
same,"residual kinase activity, MKK6",MKK6,107
same,"residual kinase activity, ERK1",ERK1,81
same,"residual kinase activity, JNK2",JNK2,90
same,"residual kinase activity, JNK3",JNK3,64
same,"residual kinase activity, p38d MAPK",p38d MAPK,62
same,"residual kinase activity, PKBb",PKBb,45
same,"residual kinase activity, SGK1",SGK1,51
same,"residual kinase activity, S6K1",S6K1,17
same,"residual kinase activity, PRK2",PRK2,46
same,"residual kinase activity, PKCz",PKCz,81
same,"residual kinase activity, SmMLCK",SmMLCK,19
same,"residual kinase activity, MARK3",MARK3,65
same,"residual kinase activity, HIPK2",HIPK2,19
same,"residual kinase activity, MLK3",MLK3,26
same,"residual kinase activity, Lck",Lck,82
same,"residual kinase activity, BTK",BTK,54
same,"residual kinase activity, IGF-1R",IGF-1R,54
same,"residual kinase activity, VEG-FR",VEG-FR,21
